The values that follow come from ChEMBL document CHEMBL1201862, “PubChem BioAssay data set” (2004).

What all share (assay): NCI-60 cell line screen, 48 h
The subject of assay [1] is UACC-257.
The test system of assay [2] is MOLT-4.
The test system of assay [3] is U-251.
The subject of assay [4] is T47D.
Assay [5] relates to HOP-92.
The test system of assay [6] is MCF7.
The subject of assay [7] is HCT-116.
Assay [8] deals with UO-31.
Assay [9] concerns M14.
In assay [10] the test system is SW-620.
The test system of assay [11] is COLO 205.
For assay [12], the system named is A549.
Assay [13] concerns KM12.
In assay [14] the test system is IGROV-1.
Assay [15] deals with SR.
Assay [16] relates to ACHN.
The subject of assay [17] is SN12C.
Assay [18] relates to BT-549.
Assay [19] has as its system HOP-62.
The subject of assay [20] is SK-OV-3.

Each structure is given as a SMILES string.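 These data come from cells grown in 96-well plates and exposed to compound for 48 hours at five concentrations. GI50: concentration for 50% inhibition of growth.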 Calls of active or inactive are those of the source. Cut-off read from the data, not from the text of the source: active = GI50 up to about 1.1 µM and inactive = higher. Where only a bound is given, the exact number is not on record here.

For `Cc1cc(S(=O)(=O)NC2=Nc3cccc(F)c3CN2)c(S)cc1Cl`, the GI50 in assay [1] was > 100 µM (inactive); in [2], 49.3 µM (inactive); in [3], 44.5 µM (inactive); in [4] it was 28.1 µM (inactive); in [5] it was > 100 µM (inactive); in assay [6], 61.7 µM (inactive). In addition, the GI50 is 38.7 µM (inactive) in assay [7]; 87.5 µM (inactive) in [8]; 40 µM (inactive) in [9]; 53.6 µM (inactive) in assay [10]; > 100 µM (inactive) in assay [11]; 35.2 µM (inactive) in assay [12]. The GI50 in assay [13] is 45.7 µM (inactive); in assay [14], 36.2 µM (inactive); in [15], 48.5 µM (inactive); in [16], 66.4 µM (inactive); in [17] it was > 100 µM (inactive); in [18], > 100 µM (inactive).
As to `Cc1cc2c(=O)[nH]nc(N)c2c(N)n1`, the GI50 in assay [1], in assay [2], in assay [3], in [4], in assay [5] and in [6] was > 100 µM (inactive) each time. Also, the GI50 in [19], in [7], in [8], in [9], in [10] and in assay [11] was > 100 µM (inactive) in each case. For the same molecule, the GI50 in assay [12], in [13], in [14], in assay [15], in assay [20] and in assay [16] was > 100 µM (inactive) each time. Further, the GI50 in [17] and in assay [18] was > 100 µM (inactive) in each case.
For `COc1c(C)c2c(c(=O)c3c(C)cccc3n2C)c2c1c(=O)c1c(C)cccc1n2C`, the GI50 in [1], in assay [2], in [3], in assay [4], in [5] and in [6] was > 10 µM (inactive) throughout. Besides, the GI50 in assay [19], in assay [7], in [8], in assay [9], in [11] and in assay [12] was > 10 µM (inactive) in each case. Also, the GI50 in assay [13], in [14], in assay [15], in [20], in [16] and in assay [17] was > 10 µM (inactive) throughout. In addition, the GI50 in assay [18] was > 10 µM (inactive).
With `CCOC(=O)c1ccc2c(c1)nc1n2C(c2c(F)cccc2F)SC1` (stereo not drawn), the GI50 in [1] was 38 µM (inactive); in [2] it was 26.8 µM (inactive); in [3] it was 55.6 µM (inactive); in [4], 12.8 µM (inactive); in assay [5], 40.6 µM (inactive); in assay [6], 19.9 µM (inactive). Moreover, the GI50 in assay [19] was 31.9 µM (inactive); in [7], 15.6 µM (inactive); in assay [8], 29.2 µM (inactive); in assay [9], 27.9 µM (inactive); in assay [10] it was 54.6 µM (inactive); in assay [11], 14.2 µM (inactive). The GI50 in assay [12] is 23.6 µM (inactive); in assay [13], 17.1 µM (inactive); in assay [14], 0.951 µM (active); in assay [15], 25.6 µM (inactive); in assay [20] it was 94.6 µM (inactive); in [16] it was 18.3 µM (inactive). The GI50 in [17] is 56.4 µM (inactive); in assay [18], 80.5 µM (inactive).
For the molecule `N#Cc1ccc(OC(=O)c2ccc(NC(=N)N)cc2)cc1.c1ccncc1`, the GI50 in [1] is > 100 µM (inactive); in [2], 38.5 µM (inactive); in assay [3], 61.2 µM (inactive); in assay [4], 42.5 µM (inactive); in assay [5], 93.5 µM (inactive); in assay [6], 39.9 µM (inactive). For the same molecule, the GI50 in assay [19] was > 100 µM (inactive); in assay [7] it was 59.3 µM (inactive); in assay [8], > 100 µM (inactive); in assay [9], > 100 µM (inactive); in [10] it was 35.5 µM (inactive); in [11], 39.1 µM (inactive). The GI50 is > 100 µM (inactive) in [12]; 57 µM (inactive) in assay [13]; > 100 µM (inactive) in [14]; 51.9 µM (inactive) in [15]; > 100 µM (inactive) in assay [20]; > 100 µM (inactive) in [16]. For the same molecule, the results for the GI50 in [17] and in assay [18] were 63.2 µM (inactive) and 88.7 µM (inactive), respectively.
With `O=C(O)c1ccc(C2=Nc3cccc4cccc(c34)N2)cc1`, the GI50 was > 100 µM (inactive) in assay [1]; 25.4 µM (inactive) in [2]; > 100 µM (inactive) in assay [3]; 57.9 µM (inactive) in [4]; 45.6 µM (inactive) in assay [5]; > 100 µM (inactive) in assay [6]. Also, the GI50 in assay [19], in [7], in [8], in [9], in [10] and in [11] was > 100 µM (inactive) in each case. Besides, the GI50 is > 100 µM (inactive) in assay [12]; > 100 µM (inactive) in assay [13]; > 100 µM (inactive) in assay [14]; 30.6 µM (inactive) in assay [15]; > 100 µM (inactive) in assay [20]; > 100 µM (inactive) in assay [16]. The GI50 in assay [17] and in assay [18] was > 100 µM (inactive) each time.
`Cc1cc2nc(CC(C(F)(F)F)C(F)(F)F)oc2cc1C`: the GI50 in [1] is 4.46 µM (inactive); in assay [3], 3.15 µM (inactive); in [4] it was 0.308 µM (active); in assay [5], 7.5 µM (inactive); in [6], 2.54 µM (inactive); in assay [19] it was 3.48 µM (inactive). The GI50 in [7] is 1 µM (active); in [8], 7.69 µM (inactive); in assay [9] it was 1.07 µM (active); in [10] it was 0.608 µM (active); in assay [11], 1.54 µM (inactive); in assay [12] it was 5.79 µM (inactive). Also, the GI50 was 3 µM (inactive) in [13]; 1.97 µM (inactive) in [14]; 0.0276 µM (active) in assay [15]; 14.1 µM (inactive) in [20]; 7.26 µM (inactive) in [16]; 1.03 µM (active) in assay [17]. Also, in assay [18], the GI50 was 0.452 µM (active).
As for `CCCCc1cc2c(C)cc(=O)oc2c(O)c1O`, the GI50 in [1] was 20.4 µM (inactive); in assay [2], 25.2 µM (inactive); in assay [3] it was 23.7 µM (inactive); in assay [4], 21.7 µM (inactive); in assay [5], 19.4 µM (inactive); in assay [6] it was 21.4 µM (inactive). The GI50 was 23.3 µM (inactive) in assay [19]; 30.5 µM (inactive) in assay [7]; 20.3 µM (inactive) in assay [8]; 31.6 µM (inactive) in assay [9]; 28.2 µM (inactive) in [10]; 25.8 µM (inactive) in assay [11]. In addition, the GI50 in assay [12] is 33.2 µM (inactive); in [13] it was 25.1 µM (inactive); in assay [14], 24.6 µM (inactive); in assay [15], 18 µM (inactive); in assay [16], 33 µM (inactive); in [17], 32.4 µM (inactive). Besides, the GI50 in [18] was 14.6 µM (inactive).
For `COC(OC)C1(c2ccccc2)Oc2ccccc2C1=O` (stereo not drawn), the GI50 in [1] is > 100 µM (inactive); in assay [2] it was 68.7 µM (inactive); in [3], > 100 µM (inactive); in [4] it was > 100 µM (inactive); in [5] it was > 100 µM (inactive); in assay [6], > 100 µM (inactive). The GI50 in assay [19], in assay [7], in assay [9], in assay [10], in assay [11] and in assay [12] was > 100 µM (inactive) in each case. The GI50 in [13], in assay [14], in [15], in [20], in assay [16] and in assay [17] was > 100 µM (inactive) throughout. For the same molecule, in [18], the GI50 is 85.9 µM (inactive).
`O=c1c2ccccc2nc(-c2ccccc2)n1/N=C/c1ccccc1[N+](=O)[O-]`: the GI50 in assay [1] is > 100 µM (inactive); in assay [2], > 100 µM (inactive); in assay [3], 16.1 µM (inactive); in [4] it was 86.9 µM (inactive); in [5] it was 29.2 µM (inactive); in assay [6] it was > 78.2 µM (inactive). The GI50 in [19] was 13.6 µM (inactive); in assay [7] it was 40.5 µM (inactive); in assay [9], > 100 µM (inactive); in [10], > 100 µM (inactive); in [11] it was > 100 µM (inactive); in assay [12], > 100 µM (inactive). In addition, the GI50 was 57.4 µM (inactive) in assay [13]; > 69.7 µM (inactive) in assay [14]; > 100 µM (inactive) in assay [15]; 19.6 µM (inactive) in assay [20]; 27.8 µM (inactive) in assay [16]; > 74.8 µM (inactive) in assay [17]. Further, in assay [18], the GI50 was 31.3 µM (inactive).
